According to patent US5602184A, “Monoterpenes, sesquiterpenes and diterpenes as cancer therapy” (priority 1993, dated 1997):
Values joined by “and” are separate entries in the source; they are usually repeats but may differ in a detail not shown here. Identical values can stand only once. “Also recorded” adds a separate entry of the source. Like-named read-outs stand apart in the source and are kept apart here. One block for each compound: values may come before it.

What was measured:
[1] = system: PC3 human prostate carcinoma; experiment: In vitro antitumor activity of terpenes against PC3 (seven day exposure); format: cell-based; details: for activity compared with farnesol (standard): FIGS. 7-9, relative to farnesol; for activity against the human prostate cancer cells: FIGS. 1-6, growth as % of untreated control; for IC50: Homo sapiens, 168 h, PC3, seven day exposure
Description: A human prostate carcinoma cell line, PC3, was obtained from the American Tissue Culture Collection, Accession No. CRL 1435. The PC3 cells were cultured in RPMI 1640 medium enriched with 10% fetal calf serum (FCS). The medium and the FCS are both available from GIBCO BRL Life Technologies, Inc., 8400 Helgeman Lane, Gaithersburg, Md. 20877.
Terpenes were exposed to the PC3 cells as follows. On day 0, seed PC3 cells at about 1,000 cells per well were placed in each well of a 96-well tissue culture plate along with […] (ml) of culture medium. On day 1, various concentrations of each of the selected terpenes were added. A serial dilution of each terpene was made in dimethyl sulfoxide (DMSO). All of the initial concentrations were about 200 times the desired concentration. Each dose was further diluted 100 times with culture medium. 0.1 ml of each dose was added per well to the tissue culture plate. The plates were incubated at 37° Celsius (C) under 5% carbon dioxide (CO2) for seven days. The results are depicted graphically in FIGS. 1-9 and some of the concentrations which inhibited cell growth to about 50% of the control growth (IC50) are shown in Table 1.

prostate tumor cells = experiment: Apoptosis and nuclear fragmentation (DNA ladder gel); format: cell-based; details: for DNA ladder indicative of apoptosis: 2% agarose minigel
Description: The invention examined the effect on prostate tumor cells of treatment with limonene, farnesol and phytol. […] The classic signature of apoptosis is the cleavage of nuclear DNA into nucleosomal subunits. On gels, this gives rise to the appearance of a ladder as nucleosomal units are sequentially cleaved from the DNA.
After drug exposure, cells were lysed and the high molecular DNA removed by centrifugation. The aqueous phase was treated with proteinase K to digest proteins. After a phenol/chloroform extraction, the DNA was precipitated with salt and ethanol. The pellet was dissolved in deionized water and treated with 500 μg/ml RNase A. The DNA was run on a 2% agarose minigel.

[2] = system: PC3 human prostate carcinoma; experiment: In vivo antitumor activity of d-limonene against PC3 in nude mice; design: species or system nude mice (human PC3 tumor); details: gavage once daily Monday through Friday for two weeks
Description: (§1) Nude mice were obtained from Cancer Research Facility in Frederick, Md. The strain name is Athymic MCR-nude. PC3 cells were transplanted into both the right and left flanks of nude mice and allowed to grow until the tumor size reached the volume of approximately 200-300 cubic mm (mm^3). At this time, five mice bearing ten tumors total were allocated to each group.
(§2) The drug or vehicle alone were administered by gavage once daily Monday through Friday for two weeks. The control group received olive oil at a dose of 0.1 cubic centimeters (cc) per ten grams (gm) of body weight. […] Both body weight and tumor volume were measured daily.

U87 glioblastoma = experiment: Effect of limonene on tumor cell proliferation, U87; format: cell-based; details: Homo sapiens, 96 h; RPMI 1640; three to four days of continuous treatment
Description: (§3) Limonene (Sigma) was evaluated for its effect on proliferation of various tumor cell lines. The cell lines included U87 and A172 (both are glioblastomas), HOS (a low ras osteosarcoma), AD5 (a high ras osteosarcoma), and HT29 (a high ras colon carcinoma). An activated or high ras means that the ras oncogene has mutated to a form which can transform normal cells to malignant cells. The glioblastoma cells were grown in RPMI 1640 culture medium and the other three cell lines were grown in Dulbecco's Modified Eagle's Medium (DMEM, available from GIBCO).
(§4) Limonene was added to the growth medium, which was supplemented with 10% FCS, and incubated at 37° C. for 24 hours. The medium was added to human tumor cells plated the previous day in 60 millimeter (mm) tissue culture (TC) dishes. After three to four days of continuous treatment, the cells were detached by trypsinization and counted using a hemocytometer (Hy-Lite Counting Chamber from Fisher Scientific, 711 Forbes Ave., Pittsburgh, Pa. 15219-4785). Cell viability was determined by a trypin blue exclusion method as described in detail in the manufacturer's instructions.

[3] = system: tumor cell lines U87, A172, HOS, AD5, HT29; experiment: Cell viability of surviving cells in the proliferation test (exclusion method); format: cell-based, human; details: of the approximately 50% of cells which survived (at IC50)
Description: as §4

[4] = to compounds having terminal hydroxy groups; cited from earlier work
[5] = Tolerability and body weight of nude mice treated with limonene; format: in vivo
Description: as §1, §2

[6] = system: AD5 human osteosarcoma cell line; experiment: Effect of limonene on radiation sensitivity of tumor cells; format: cell-based; details: 3 mM limonene; FIG. 10
Description: An activated ras oncogene makes tumor cells resistant to radiation therapy. The AD5 human osteosarcoma cell line is an example of such a cell line resistant to radiation by virtue of an activated ras oncogene. AD5 cells were cultivated as described in Example 2. Limonene was prepared in various concentrations also as described in Example 2. […] This dose refers to the dose that reduces the number of surviving cells to about 37% of the control cells. Gy (gray) is an international metric unit for an absorbed dose of radiation. One Gy equals one Joule/kg.

[7] = system: AD5 osteosarcoma (high ras); experiment: Effect of limonene on tumor cell proliferation, AD5; format: cell-based; details: Homo sapiens, 96 h; DMEM; three to four days of continuous treatment
Description: as §3, §4

[8] = system: HT29 colon carcinoma (high ras); experiment: Effect of limonene on tumor cell proliferation, HT29; format: cell-based; details: Homo sapiens, HT-29, 96 h; DMEM; three to four days of continuous treatment
Description: as §3, §4

A172 glioblastoma = experiment: Effect of limonene on tumor cell proliferation, A172; format: cell-based; details: Homo sapiens, A 172, 96 h; RPMI 1640; three to four days of continuous treatment
Description: as §3, §4

[9] = system: HOS osteosarcoma (low ras); experiment: Effect of limonene on tumor cell proliferation, HOS; format: cell-based; details: Homo sapiens, 96 h; DMEM; three to four days of continuous treatment
Description: as §3, §4

[10] = design: species or system nude mice; details: mouse, in vivo
Description: as §1
(§5) The drug or vehicle alone were administered by gavage once daily Monday through Friday for two weeks. The control group received olive oil at a dose of 0.1 cubic centimeters (cc) per ten grams (gm) of body weight. Other groups received the same volume of olive oil with limonene added to give a daily dose of limonene of 0.1, 1.0 or 2.0 […]. Both body weight and tumor volume were measured daily.
(§6) The experimental procedure of Example 5 was followed except that phytol was used in place of limonene. […] The results are depicted in FIG. 13 which plots the percent change of tumor volume versus the number of days after inoculation of the nude mice with […] tumor cells.

[11] = system: PC3 human prostate carcinoma; experiment: In vivo antitumor activity of phytol against PC3 in nude mice; design: species or system nude mice (human PC3 tumor)
Description: as §1, §5, §6

Compound: CC(C)=CCC/C(C)=C\CO [nerol]
activity compared with farnesol (standard) [1]: less active

Compound: CC(C)c1ccc(C=O)cc1 [4-isopropylbenzaldehyde]
activity compared with farnesol (standard) [1]: less active

Compound: O=C(O)CCCCCCCCCCCCCCCO [16-hydroxyhexadecanoic acid]
activity compared with farnesol (standard) [1]: less active

Compound: CC(C)=CCC/C(C)=C/CC/C(C)=C/C(=O)O [farnesylic acid]
activity against the human prostate cancer cells [1]: favorable activity

IC50 [1]: 85.6 µM and 19 µg/mL
Compound: CC(C)=CCC/C(C)=C/CC/C(C)=C/CO [farnesol, trans, trans-farnesol]
mode of cell death (prostate tumor cells): apoptosis, not necrosis | tumor cell death (not cytostasis) (prostate tumor cells): tumor cell death (not cytostasis) was observed | DNA ladder indicative of apoptosis (prostate tumor cells): a classic DNA ladder indicative of apoptosis has been noted; also recorded: classic DNA ladders | activity against the human prostate cancer cells [1]: favorable activity

IC50 [1]: 147 µM and 21 µg/mL
Compound: C=CC(=C)CCC=C(C)C [beta-myrcene]

Compound: CC(C)c1ccc(C(=O)O)cc1 [4-isopropylbenzoic acid]
activity compared with farnesol (standard) [1]: less active

Compound: CC(C)=CCC[C@@H](C)CCO [d-citronellol]
activity compared with farnesol (standard) [1]: less active

Compound: CC(C)=CCCC(C)CC(=O)O (stereo not drawn) [citronellic acid]
activity compared with farnesol (standard) [1]: less active

IC50 [1]: 10.5 µM and 3 µg/mL
Compound: CC(C)=CCC/C(C)=C/CC/C(C)=C/CC/C(C)=C/CO [geranylgeraniol]
activity against the human prostate cancer cells [1]: favorable activity

Compound: C=C(C)[C@H]1CC=C(C)CC1 [limonene, d-Limonene]
rate of tumor growth vs control group ([2]; 0.1 gm/kg): the same | rate of tumor growth vs control group ([2]; 1.0 gm/kg): the same | rate of tumor growth vs control group ([2]; 2.0 gm/kg): approximately half of that in the control group | IC50 (U87 glioblastoma): 2100 ± 400 µM | cell viability [3]: > 95% | metabolism in vivo [4]: rapidly metabolized | tolerability ([5]; gavage, two weeks, up to 2.0 gm/kg): appeared to tolerate the drug well | loss in weight ([5]; mouse, in vivo): not a statistically significant loss in weight | effect on radiation dose response curve [6]: alters both the shoulder and the dose (Do) of the radiation dose response curve | IC50 [7]: 4800 ± 600 µM | IC50 [8]: 4500 ± 500 µM | mode of cell death (prostate tumor cells): apoptosis, not necrosis | tumor cell death (not cytostasis) (prostate tumor cells): tumor cell death (not cytostasis) was observed | DNA ladder indicative of apoptosis (prostate tumor cells): a classic DNA ladder indicative of apoptosis has been noted; also recorded: classic DNA ladders | IC50 (A172 glioblastoma): 1500 ± 500 µM | IC50 [1]: 217 µM and 30 µg/mL | IC50 [9]: 3000 ± 300 µM

Compound: C=CC(C)CCCC(C)(C)O (stereo not drawn) [dihydromyrcenol]
activity compared with farnesol (standard) [1]: less active

IC50 [1]: 90.1 µM and 20 µg/mL
Compound: C=CC(C)(O)CCC=C(C)CCC=C(C)C (stereo not drawn) [nerolidol]
activity against the human prostate cancer cells [1]: favorable activity

Compound: C=C(C)C1CC=C(C=NO)CC1 (stereo not drawn) [perillartine]
activity compared with farnesol (standard) [1]: less active

Compound: CC(C)=CCCC(C)CC=O (stereo not drawn) [citronellal]
activity compared with farnesol (standard) [1]: less active

IC50 [1]: 17 µM and 3 µg/mL
Compound: CC(C)=CCCC(C)=CC=O [citral]
activity against the human prostate cancer cells [1]: favorable activity

Compound: C/C(=C\CO)CCC[C@H](C)CCC[C@H](C)CCCC(C)C [phytol]
tolerability [10]: tolerated the phytol well | tumor production during the treatment period ([11]; during the treatment period): negligible tumor production | tumor volume as compared to the control animals ([11]; phytol by procedure of Example 5): lower tumor volume | mode of cell death (prostate tumor cells): apoptosis, not necrosis | tumor cell death (not cytostasis) (prostate tumor cells): tumor cell death (not cytostasis) was observed | DNA ladder indicative of apoptosis (prostate tumor cells): a classic DNA ladder indicative of apoptosis has been noted | activity against the human prostate cancer cells [1]: favorable activity | IC50 [1]: 34.3 µM and 10 µg/mL

Compound: CC(C)c1ccc(CO)cc1 [4-isopropylbenzylalcohol]
activity compared with farnesol (standard) [1]: less active
